Marks after values point to notes of the source that are not given here.
Columns and labels:
[1] = system: N-methyl-D-aspartate (NMDA) induced lethality; experiment: Protection against NMDA induced lethality; assay type: in vivo, Balb/c male mice; conditions: 90 min before NMDA (125 mg/kg) s.c., no drug 0/20
Description: (§1) The present compounds are active in several tests generally used to indicate neuroprotection.

[2] = system: Arachidonic Acid-Induced Paw Edema; experiment: Arachidonic acid-induced paw edema (water displacement); assay type: in vivo, CD-1 female mice; conditions: oral, 30 min after arachidonic acid (1.0 mg s.c.), vs vehicle treated controls
Description: The induction of paw edema in rodents by injection of arachidonic acid has been used as an experimental model for inflammation [Calhoun, W., et al., Agents and Actions, 21, 306 (1987)]. Prior administration of non-steroidal anti-inflammatory drugs (NSAIDs) in many cases leads to a dose related inhibition of the edematous response which may be considered a predictor of clinical efficacy.
The conditions were based on those reported previously [Calhoun et al., ibid.]. […] PAF (1.0 µg) or arachidonic acid (1.0 mg) dissolved in 50 µl of 5% ethanol in saline, were injected s.c. into the plantar surface of the right hind paw of CD-1 female mice (20-25 g) obtained from Charles River Labs. The mice were under ether anesthesia during this procedure. The volume of the right foot was measured to the level of the lateral malleous by water displacement before treatment and 15 min after PAF injection or 30 min after archidonate injection. The change in paw volume was calculated for each mouse and the significance for each group was determined by a paired t test analysis.

[3] = system: picrotoxin induced lethality; experiment: Protection against picrotoxin induced lethality; assay type: in vivo, Balb/c male mice; conditions: drug 10 mg/kg, 120 min before picrotoxin (8 mg/kg) s.c.; no drug 0/17
Description: as §1

mouse [4] = experiment: Ring test for cataleptic effects; assay type: in vivo; conditions: 5-min test period, vehicle 7.7 ± 4.4
Description: The lack of CNS activity for the compounds described herein may be seen from the data shown in Table V. This was measured by the so-called "ring test" [Pertwee, R.G., et al., J. Pharmacol., 46, 753 (1972)] in which the cataleptic effects of cannabinoids can be quantitated. The compounds produced little or no response when compared with the parent drug.
The cataleptic response was measured using the ring test. Mice were placed on a horizontal wire ring 5.5 cm in diameter, which was attached to a 16 cm vertical rod. The hind paws and fore paws were placed at opposite sides of the ring. It is important that the ambient temperature is maintained at 30°C and that the environment be free of auditory stimuli and bright lights. The criteria for immobility are detailed by Pertwee. The response is calculated as the fraction of time the mouse is immobile over a 5-min test period. Measurements were always done between 2 and 4 p.m. and the animals were used only once.

mouse [5] = experiment: Mouse hot plate test (55°C) for antinociception; assay type: in vivo
Description: In the hot plate test for analgesia an aluminum surface was maintained at 55 ± 1°C by circulating water through passages in the metal. A clear plastic cylinder 18 cm in diameter and 26 cm high was placed on the surface to prevent escape. The end point was taken when the mouse either performed a hind paw lick or jumped off the surface; in no case were the animals kept for more than 30 secs on the plate. Mice were never used more than one time; control values were always measured at 11 a.m. and test values at 2 p.m. The drugs were administered orally 90 min before the hot plate test. The percent change in response time (latency) was calculated by comparing the mean of the control values with the mean of the test values and statistical signficance determined by a paired t-test analysis using software (Statview, 512) from Brainpower, Inc., Calabasas, Ca.

intraocular pressure = experiment: Reduction of intraocular pressure (anti-glaucoma activity); assay type: in vivo, rabbits; conditions: 50 µl drop of a 1% emulsion into the rabbit eye
Description: Reduction of intraocular pressure in rabbits was determined by the addition of a 50 µl drop of a 1% emulsion of the cannabinoid into the rabbit eye. This test is a measure of anti-glaucomatic activity.

[6] = system: forebrain ischemia (unilateral occlusion); experiment: Forebrain ischemia (unilateral occlusion); assay type: in vivo; conditions: mongolian gerbils
Description: as §1

For CCCCCCC(C)(C)c1cc(OC(C)=O)c2c(c1)OC(C)(C)[C@H]1CC=C(C(=O)O)C[C@H]21 [HU-245, (3S,4S)-THC-DMH-7-oic acid, acetate], the “Survival rate (number of survivors out of total number of animals used)” value (“Survival rate” for short) ([1]; drug 2.5 mg/kg) was 6/12, the “Survival rate” value ([1]; drug 10 mg/kg) was 8/10 and the “percent inhibition of paw edema” value ([2]; dose 0.050 mg.kg) was 35.7 (N.S.) percent. For the same compound, the “percent inhibition of paw edema” value ([2]; dose 0.100 mg.kg) was 50.1* percent, the “percent inhibition of paw edema” value ([2]; dose 0.250 mg.kg) was 48.2* percent and the “percent inhibition of paw edema” value ([2]; dose 0.55 mg.kg) was 42.2 (N.S.) percent. The “Survival rate” value [3] was 5/8, the “Response ± SD (means of the fraction of time the mice remained immobile)” value (mouse [4]; dose 0.5 mg/kg) was 6.8 ± 2.4 and the “Response ± SD (means of the fraction of time the mice remained immobile)” value (mouse [4]; dose 1.0 mg/kg) was 12.0 ± 6.0. For the same compound, the “percent change in latency” value (mouse [5]; dose 0.025 mg/kg orally 90 min before the hot plate test) was 10.7(5) percent, the “percent change in latency” value (mouse [5]; dose 0.050 mg/kg orally 90 min before the hot plate test) was 66.2(5)* percent and the “percent change in latency” value (mouse [5]; dose 0.10 mg/kg orally 90 min before the hot plate test) was 62.2(5)* percent. The “percent change in latency” value (mouse [5]; dose 0.25 mg/kg orally 90 min before the hot plate test) was 68.1(10)* percent, the “percent change in latency” value (mouse [5]; dose 0.50 mg/kg orally 90 min before the hot plate test) was 49.9(5)* percent and the “percent change in latency” value (mouse [5]; dose 1.0 mg/kg orally 90 min before the hot plate test) was 12.5(5) percent. The “Reduction of intraocular pressure” value (intraocular pressure) was “Significant reduction” and the “protection against forebrain ischemia” value [6] was “protect against forebrain ischemia”.

Source: patent publication EP0642504B1 (priority 1991, dated 1993)
